Data on 18 compounds can be found in patent US8481540B2, “Inhibitors of bruton's tyrosine kinase” (Hoffmann-La Roche Inc., priority 2010, dated 2013).

Each structure is given as a SMILES string. pIC50: −log10 of the molar value.

The subject of the first test is B cells in human blood. Briefly: Inhibition of B cell activation in whole blood measured by CD69 expression. Type of test: cell-based. The note with it: CD69-positive, CD20-positive cells after anti-IgM stimulation, human whole blood, 20 hours, read-out: Human Whole Blood. On the procedure: Inhibition of B Cell Activation in Whole Blood Measured by CD69 Expression
A procedure to test the ability of Btk inhibitors to suppress B cell receptor-mediated activation of B cells in human blood is as follows:
Human whole blood (HWB) is obtained from healthy volunteers, with the following restrictions: 24 hr drug-free, non-smokers. Blood is collected by venipuncture into Vacutainer tubes anticoagulated with sodium heparin. Test compounds are diluted to […] the desired starting drug concentration in PBS (20×), followed by three-fold serial dilutions in 10% DMSO in PBS to produce a nine point dose-response curve. 5.5 μl of each compound dilution is added in duplicate to a 2 ml96-well V bottom plate (Analytical Sales and Services, #59623-23); 5.5 μl of 10% DMSO in PBS is added to control and no-stimulus wells. HWB (100 μl) is added to each well, and after mixing the plates are incubated at 37 C, 5% CO2, 100% humidity for 30 minutes. Goat F(ab′)2 anti-human IgM (Southern Biotech, #2022-14) (10 μl of a […] solution, 50 μg/ml final concentration) is added to each well (except the no-stimulus wells) with mixing and the plates are incubated for an additional 20 hours.
At the end of the 20 hour incubation, samples are incubated with florescent-probe-labeled anti-bodies (15 μl PE Mouse anti-Human CD20, BD Pharmingen, #555623, and/or 20 ul APC Mouse anti-Human CD69, BD Pharmingen #555533) for 30 minutes, at 37 C, 5% CO2, 100% humidity. Included are induced control, unstained and single stains for compensation adjustments and initial voltage settings. Samples are then lysed with 1 ml of 1× Pharmingen Lyse Buffer (BD Pharmingen #555899), and plates are centrifuged at 1800 rpm for 5 minutes. Supernatants are removed via suction and the remaining pellets are lysed again with another 1 ml of 1× Pharmingen Lyse Buffer, and plates are spun down as before. Supernatants are aspirated and remaining pellets are washed in FACs buffer (PBS+1% FBS). After a final spin, the supernantants are removed and pellets are resuspended in 180 μl of FACs buffer. Samples are transferred to a 96 well plate suitable to be run on the HTS 96 well system on the BD LSR II flow cytometer.
Using appropriate excitation and emission wavelengths for the fluorophores used, data are acquired and percent positive cell values are obtained using Cell Quest Software. Results are initially analyzed by FACS analysis software (Flow Jo). […] The IC50 values are calculated using XLfit software version 3, equation 201.
Representative compound data for this assay are listed below in Table II.
In the case of `CC(=O)N1CCC(c2ccc(Nc3cc(-c4cccc(-n5ncc6cc(C(C)(C)C)cc(F)c6c5=O)c4CO)nn(C)c3=O)nc2)CC1` [I-63, 2-(3-(5-(5-(1-acetylpiperidin-4-yl)pyridin-2-ylamino)-1-methyl-6-oxo-1,6-dihydropyridazin-3-yl)-2-(hydroxymethyl)phenyl)-6-tert-butyl-8-fluorophthalazin-1(2H)-one], the pIC50 was 6.72.

Regarding `Cn1nc(-c2cccc(-n3ncc4cc(C(C)(C)C)cc(F)c4c3=O)c2CO)cc(Nc2ccc(C(=O)N3CCS(=O)(=O)CC3)cn2)c1=O` [I-48, 6-tert-Butyl-2-(3-{5-[5-(1,1-dioxo-1λ^6-thiomorpholine-4-carbonyl)-pyridin-2-ylamino]-1-methyl-6-oxo-1,6-dihydro-pyridazin-3-yl}-2-hydroxymethyl-phenyl)-8-fluoro-2H-phthalazin-1-one], the pIC50 is 6.73.

Take `Cn1nc(-c2cccc(-n3ncc4cc(C(C)(C)C)cc(F)c4c3=O)c2CO)cc(Nc2ccc(C3CCN(CC(F)(F)F)CC3)cn2)c1=O` [I-90, 6-tert-butyl-8-fluoro-2-(2-hydroxymethyl-3-{1-methyl-6-oxo-5-[1′-(2,2,2-trifluoro-ethyl)-1′,2′,3′,4′,5′,6′-hexahydro-[3,4′]bipyridinyl-6-ylamino]-1,6-dihydro-pyridazin-3-yl}-phenyl)-2H-phthalazin-1-one]: the pIC50 was 6.47.

For `CCS(=O)(=O)c1ccc(Nc2cc(-c3cccc(-n4ncc5cc(C(C)(C)C)cc(F)c5c4=O)c3CO)nn(C)c2=O)nc1` [I-23, 6-tert-Butyl-2-{3-[5-(5-ethanesulfonyl-pyridin-2-ylamino)-1-methyl-6-oxo-1,6-dihydro-pyridazin-3-yl]-2-hydroxymethyl-phenyl}-8-fluoro-2H-phthalazin-1-one], the pIC50 is 7.22.

As for `Cn1nc(-c2cccc(-n3ccc4cc(C(C)(C)CF)cc(F)c4c3=O)c2CO)cc(Nc2ccc(C(=O)N3CCOCC3)cn2)c1=O` [I-87, 8-Fluoro-6-(2-fluoro-1,1-dimethyl-ethyl)-2-(2-hydroxymethyl-3-{1-methyl-5-[5-(morpholine-4-carbonyl)-pyridin-2-ylamino]-6-oxo-1,6-dihydro-pyridazin-3-yl}-phenyl)-2H-isoquinolin-1-one], the pIC50 is 6.34.

As to `Cn1nc(-c2cccc(-n3ncc4cc(C(C)(C)C)cc(F)c4c3=O)c2CO)cc(Nc2ccc(OC(C)(C)CO)cn2)c1=O` [I-12, 6-tert-butyl-8-fluoro-2-(3-{5-[5-(2-hydroxy-1,1-dimethyl-ethoxy)-pyridin-2-ylamino]-1-methyl-6-oxo-1,6-dihydro-pyridazin-3-yl}-2-hydroxymethyl-phenyl)-2H-phthalazin-1-one], the pIC50 was 7.28.

`Cn1nc(-c2cccc(-n3ncc4cc(C(C)(C)C)cc(F)c4c3=O)c2CO)cc(Nc2ccc(OC(C)(C)CN3CCC3)cn2)c1=O` [I-13, 2-(3-{5-[5-(2-azetidin-1-yl-1,1-dimethyl-ethoxy)-pyridin-2-ylamino]-1-methyl-6-oxo-1,6-dihydro-pyridazin-3-yl}-2-hydroxymethyl-phenyl)-6-tert-butyl-8-fluoro-2H-phthalazin-1-one]: the pIC50 was 8.05.

Consider `CN1CC[C@@H](c2ccc(Nc3cc(-c4cccc(-n5ccc6cc(C(C)(C)C#N)cc(F)c6c5=O)c4CO)nn(C)c3=O)nc2)C1` [I-77, 2-[8-Fluoro-2-(2-hydroxymethyl-3-{1-methyl-5-[5-((S)-1-methyl-pyrrolidin-3-yl)-pyridin-2-ylamino]-6-oxo-1,6-dihydro-pyridazin-3-yl}-phenyl)-1-oxo-1,2-dihydro-isoquinolin-6-yl]-2-methyl-propionitrile], for which the pIC50 is 6.91.

Consider `CN1CCC[C@H]1c1ccc(Nc2cc(-c3cccc(-n4ccc5cc(C(C)(C)C#N)cc(F)c5c4=O)c3CO)nn(C)c2=O)nc1` [I-76, 2-[8-Fluoro-2-(2-hydroxymethyl-3-{1-methyl-5-[5-((S)-1-methyl-pyrrolidin-2-yl)-pyridin-2-ylamino]-6-oxo-1,6-dihydro-pyridazin-3-yl}-phenyl)-1-oxo-1,2-dihydro-isoquinolin-6-yl]-2-methyl-propionitrile], for which the pIC50 was 7.29.

In the case of `Cn1nc(-c2cccc(-n3ncc4cc(C(C)(C)C)cc(F)c4c3=O)c2CO)cc(Nc2ccc(C(=O)N3CC4(COC4)C3)cn2)c1=O` [I-49, 2-(3-(5-(5-(2-oxa-6-azaspiro[3.3]heptane-6-carbonyl)pyridin-2-ylamino)-1-methyl-6-oxo-1,6-dihydropyridazin-3-yl)-2-(hydroxymethyl)phenyl)-6-tert-butyl-8-fluorophthalazin-1(2H)-one], the pIC50 is 7.07.

For the compound `Cn1nc(-c2cccc(-n3ncc4cc(C(C)(C)C)cc(F)c4c3=O)c2CO)cc(Nc2ccc(N3CCC(O)CC3)cn2)c1=O` [I-65, 6-tert-butyl-8-fluoro-2-(2-(hydroxymethyl)-3-(5-(5-(4-hydroxypiperidin-1-yl)pyridin-2-ylamino)-1-methyl-6-oxo-1,6-dihydropyridazin-3-yl)phenyl)phthalazin-1(2H)-one], the pIC50 is 7.21.

Regarding `Cn1nc(-c2cccc(-n3ccc4cc(C(C)(C)C#N)cc(F)c4c3=O)c2CO)cc(Nc2ccc(OC(C)(C)CN3CCC3)cn2)c1=O` [I-73, 2-[2-(3-{5-[5-(2-Azetidin-1-yl-1,1-dimethyl-ethoxy)-pyridin-2-ylamino]-1-methyl-6-oxo-1,6-dihydro-pyridazin-3-yl}-2-hydroxymethyl-phenyl)-8-fluoro-1-oxo-1,2-dihydro-isoquinolin-6-yl]-2-methyl-propionitrile], the pIC50 is 7.52.

Regarding `Cn1nc(-c2cccc(-n3ccc4cc(C(C)(C)C#N)cc(F)c4c3=O)c2CO)cc(Nc2cc3n(n2)CCN(C2COC2)C3)c1=O` [I-79, 2-(8-Fluoro-2-{2-hydroxymethyl-3-[1-methyl-5-(5-oxetan-3-yl-4,5,6,7-tetrahydro-pyrazolo[1,5-a]pyrazin-2-ylamino)-6-oxo-1,6-dihydro-pyridazin-3-yl]-phenyl}-1-oxo-1,2-dihydro-isoquinolin-6-yl)-2-methyl-propionitrile], the pIC50 was 7.22.

As for `CN1C[C@@H]2C[C@H]1CN2c1ccc(Nc2cc(-c3cccc(-n4ncc5cc(C(C)(C)C)cc(F)c5c4=O)c3CO)nn(C)c2=O)nn1` [I-46, 6-tert-Butyl-8-fluoro-2-(2-hydroxymethyl-3-{1-methyl-5-[6-((1S,4S)-5-methyl-2,5-diaza-bicyclo[2.2.1]hept-2-yl)-pyridazin-3-ylamino]-6-oxo-1,6-dihydro-pyridazin-3-yl}-phenyl)-2H-phthalazin-1-one], the pIC50 is 6.53.

`CN1CCN(Cc2ccc(Nc3cc(-c4cccc(-n5ncc6cc(C(C)(C)C)cc(F)c6c5=O)c4CO)nn(C)c3=O)nc2)CC1` [I-41, 6-tert-Butyl-8-fluoro-2-(2-hydroxymethyl-3-{1-methyl-5-[5-(4-methyl-piperazin-1-ylmethyl)-pyridin-2-ylamino]-6-oxo-1,6-dihydro-pyridazin-3-yl}-phenyl)-2H-phthalazin-1-one]: the pIC50 was 7.82.

Regarding `CN1CCN(c2ccc(Nc3cc(-c4cccc(-n5ncc6cc(C(C)(C)C)cc(F)c6c5=O)c4CO)nn(C)c3=O)nn2)CC1` [I-45, 6-tert-Butyl-8-fluoro-2-(2-hydroxymethyl-3-{1-methyl-5-[6-(4-methyl-piperazin-1-yl)-pyridazin-3-ylamino]-6-oxo-1,6-dihydro-pyridazin-3-yl}-phenyl)-2H-phthalazin-1-one], the pIC50 is 7.57.

Still in this test, the particulars now being: Homo sapiens, 20 h, read-out: Human Whole Blood.
As to `Cn1nc(-c2cccc(-n3ncc4cc(C(C)(C)C)cc(F)c4c3=O)c2CO)cc(Nc2ccc(C(=O)N3CCOCC3)cn2)c1=O` [I-2, 6-tert-Butyl-8-fluoro-2-(2-hydroxymethyl-3-{1-methyl-5-[5-(morpholine-4-carbonyl)-pyridin-2-ylamino]-6-oxo-1,6-dihydro-pyridazin-3-yl}-phenyl)-2H-phthalazin-1-one], the pIC50 is 7.85.

The test is the same for the next values; noted with them: Homo sapiens, 20 h, read-out: Human Whole Blood, CD69-positive, CD20-positive cells after anti-IgM stimulation, human whole blood, 20 hours.
On to `CN(C)C(=O)c1ccc(Nc2cc(-c3cccc(-n4ncc5cc(C(C)(C)C)cc(F)c5c4=O)c3CO)nn(C)c2=O)nc1` [I-10, 6-{6-[3-(6-tert-Butyl-8-fluoro-1-oxo-1H-phthalazin-2-yl)-2-hydroxymethyl-phenyl]-2-methyl-3-oxo-2,3-dihydro-pyridazin-4-ylamino}-N,N-dimethyl-nicotinamide], for which the pIC50 was 7.72.
